Bounds are passed on as bounds.

The results in this text go back to patent US20050197338A1, “Substituted pyrazole urea compounds for the treatment of inflammation” (priority 2003, published 2005).

For the first assay, the target named is T1, human IKK-2 (rhIKK-2 homodimer) (Homo sapiens, UniProt O14920).
T1 construct: FLAG (DYKDDDDKD) (C); made in house; host or cells: insect cells (baculovirus, pFastBac)
T1 sequence (O14920 1-756): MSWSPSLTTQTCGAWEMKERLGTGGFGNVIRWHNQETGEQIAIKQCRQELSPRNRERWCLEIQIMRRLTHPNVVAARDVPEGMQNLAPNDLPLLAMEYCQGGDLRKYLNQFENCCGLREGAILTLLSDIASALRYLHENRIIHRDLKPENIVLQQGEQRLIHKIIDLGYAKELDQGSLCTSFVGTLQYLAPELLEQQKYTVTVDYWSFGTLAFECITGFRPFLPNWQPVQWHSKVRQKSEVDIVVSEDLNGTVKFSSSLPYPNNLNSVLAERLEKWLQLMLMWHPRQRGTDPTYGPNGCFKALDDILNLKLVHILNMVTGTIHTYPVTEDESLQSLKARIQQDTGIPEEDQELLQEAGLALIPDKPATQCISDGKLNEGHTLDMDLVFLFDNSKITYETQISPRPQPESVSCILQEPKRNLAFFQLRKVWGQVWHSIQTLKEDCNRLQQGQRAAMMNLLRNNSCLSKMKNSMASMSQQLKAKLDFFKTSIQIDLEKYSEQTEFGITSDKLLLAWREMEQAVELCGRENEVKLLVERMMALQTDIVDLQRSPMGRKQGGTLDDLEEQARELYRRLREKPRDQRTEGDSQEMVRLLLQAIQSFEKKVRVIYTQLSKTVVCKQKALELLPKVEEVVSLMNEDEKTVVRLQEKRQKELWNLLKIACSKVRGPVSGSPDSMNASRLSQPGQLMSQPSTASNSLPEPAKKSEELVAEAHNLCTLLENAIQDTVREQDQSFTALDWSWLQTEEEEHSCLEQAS
In words: IKK-2 Resin Enzyme Assay (Human IKK-2 Enzyme Assay). Type of assay: biochemical.
Details: not given
In outline:
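C-terminally FLAG-tagged human IKK-2 homodimer, baculovirus-expressed in insect cells and anti-FLAG purified. Reaction mix: 5 μM biotinylated IκBα peptide (Ser32/Ser36 region), 1 μM ATP with [γ-33P]ATP, 2 mM MgCl2, 2 mM MnCl2, 10 mM NaF, 1 mM DTT, 25 mM HEPES pH 7.6. Incubated 30 min at 25 °C; IC50 derived.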
One may read the IC50 as the concentration that inhibits the measured activity by half. `NC(=O)Nc1cn(-c2cccc(-c3ccc(C(=O)N4CCC(=O)CC4)cc3)c2)nc1C(N)=O` [Example 90, 4-[(aminocarbonyl)amino]-1-{4′-[(4-oxopiperidin-1-yl)carbonyl]-1,1′-biphenyl-3-yl}-1H-pyrazole-3-carboxamide] had an IC50 of 2.81 µM.

The assay is the same for the next values; noted with them: human IKK-2, resin enzyme assay; read-out: IC50 (μM) hIKK-2.
On to `N#CCCNC(=O)c1cccc(-c2cccc(-n3cc(NC(N)=O)c(C(N)=O)n3)c2)c1` [Example 82, 4-[(aminocarbonyl)amino]-1-(3′-{[(2-cyanoethyl)amino]carbonyl}-1,1′-biphenyl-3-yl)-1H-pyrazole-3-carboxamide], for which the IC50 stood at 1.19 µM.
The same measure, in the same setting: then `CNC(=O)c1cccc(-c2cccc(-n3cc(NC(N)=O)c(C(N)=O)n3)c2)c1` [Example 83, 4-[(aminocarbonyl)amino]-1-{3′-[(methylamino)carbonyl]-1,1′-biphenyl-3-yl}-1H-pyrazole-3-carboxamide], with 1.29 µM.
Regarding `N#CCCNC(=O)c1ccc(-c2cccc(-n3cc(NC(N)=O)c(C(N)=O)n3)c2)cc1` [Example 84, 4-[(aminocarbonyl)amino]-1-(4′-{[(2-cyanoethyl)amino]carbonyl}-1,1′-biphenyl-3-yl)-1H-pyrazole-3-carboxamide], the IC50 was 2.06 µM.
Same read-out and setting: in the case of `NC(=O)Nc1cn(-c2cccc(-c3ccc(C(=O)NCC(=O)O)cc3)c2)nc1C(N)=O` [Example 85, N-[(3′-{3-(aminocarbonyl)-4-[(aminocarbonyl)amino]-1H-pyrazol-1-yl}-1,1′-biphenyl-4-yl)carbonyl]glycine] it was 0.58 µM.
For the molecule `NC(=O)Nc1cn(-c2cccc(-c3ccccc3OCc3ccccc3)c2)nc1C(N)=O` [Example 86, 4-[(aminocarbonyl)amino]-1-[2′-(benzyloxy)-1,1′-biphenyl-3-yl]-1H-pyrazole-3-carboxamide], the 50% inhibitory concentration (IC50) was determined as 5.91 µM.
`NC(=O)Nc1cn(-c2cccc(-c3ccccc3CO)c2)nc1C(N)=O` [Example 87]: the IC50 was 1.52 µM.
`COc1ccccc1-c1cccc(-n2cc(NC(N)=O)c(C(N)=O)n2)c1` [Example 88, 4-[(aminocarbonyl)amino]-1-(2′-methoxy-1,1′-biphenyl-3-yl)-1H-pyrazole-3-carboxamide]: the IC50 was 3.2 µM.
For `Cc1cc(O)ccc1-c1cccc(-n2cc(NC(N)=O)c(C(N)=O)n2)c1` [Example 89, 4-[(aminocarbonyl)amino]-1-(4′-hydroxy-2′-methyl-1,1′-biphenyl-3-yl)-1H-pyrazole-3-carboxamide], the IC50 was determined as 0.7 µM.
As for `CC(=O)c1ccccc1-c1cccc(-n2cc(NC(N)=O)c(C(N)=O)n2)c1` [Example 91, 1-(2′-acetyl-1,1′-biphenyl-3-yl)-4-[(aminocarbonyl)amino]-1H-pyrazole-3-carboxamide], the IC50 was 3.45 µM.
For `NC(=O)Nc1cn(-c2ccc(-c3cccc(C(=O)O)c3)cc2)nc1C(N)=O` [Example 96, 4′-{3-(aminocarbonyl)-4-[(aminocarbonyl)amino]-1H-pyrazol-1-yl}-1,1′-biphenyl-3-carboxylic acid], the IC50 turned out to be 1.45 µM.
`Cc1cccc(-c2ccc(-n3cc(NC(N)=O)c(C(N)=O)n3)cc2)c1` [Example 102, 4-[(aminocarbonyl)amino]-1-(3′-methyl-1,1′-biphenyl-4-yl)-1H-pyrazole-3-carboxamide]: the IC50 was 2.82 µM.
`Cc1ccc(-c2ccc(-n3cc(NC(N)=O)c(C(N)=O)n3)cc2)cc1` [Example 103]: the IC50 is above 20 µM.
Turning to `N#Cc1cccc(-c2ccc(-n3cc(NC(N)=O)c(C(N)=O)n3)cc2)c1` [Example 104, 4-[(aminocarbonyl)amino]-1-(3′-cyano-1,1′-biphenyl-4-yl)-1H-pyrazole-3-carboxamide], the IC50 worked out at 0.677 µM.
In the case of `NC(=O)Nc1cn(-c2ccc(-c3ccccc3CO)cc2)nc1C(N)=O` [Example 105, 4-[(aminocarbonyl)amino]-1-[2′-(hydroxymethyl)-1,1′-biphenyl-4-yl]-1H-pyrazole-3-carboxamide], the half-maximal inhibitory concentration (IC50) amounted to 0.351 µM.
On to `COc1cccc(-c2ccc(-n3cc(NC(N)=O)c(C(N)=O)n3)cc2)c1` [Example 107, 4-[(aminocarbonyl)amino]-1-(3′-methoxy-1,1′-biphenyl-4-yl)-1H-pyrazole-3-carboxamide], for which the IC50 was found to be 0.651 µM.
Turning to `Cc1cc(-c2ccc(-n3cc(NC(N)=O)c(C(N)=O)n3)cc2)ccc1F` [Example 109, 4-[(aminocarbonyl)amino]-1-(4′-fluoro-3′-methyl-1,1′-biphenyl-4-yl)-1H-pyrazole-3-carboxamide], the IC50 stood at 5.52 µM.
For `NC(=O)Nc1nn(-c2ccc(-c3cccc(F)c3F)cc2)cc1C(N)=O` [Example 112], the concentration for half-maximal inhibition (IC50) was 1.99 µM.
The same measure, in the same setting: in the case of `NC(=O)Nc1nn(-c2ccc(-c3ccc(F)cc3F)cc2)cc1C(N)=O` [Example 113] it was 0.355 µM; in that of `NC(=O)Nc1nn(-c2ccc(-c3ccc(F)c(F)c3)cc2)cc1C(N)=O` [Example 114], 3.19 µM; in that of `CC(C)c1cccc(-c2ccc(-n3cc(C(N)=O)c(NC(N)=O)n3)cc2)c1` [Example 116], 11 µM.
For `CC(C)c1ccc(-c2ccc(-n3cc(C(N)=O)c(NC(N)=O)n3)cc2)cc1` [Example 117], the IC50 was above 20 µM.
As for `CSc1cccc(-c2ccc(-n3cc(C(N)=O)c(NC(N)=O)n3)cc2)c1` [Example 118], the IC50 stood at 3.07 µM.
Regarding `CSc1ccc(-c2ccc(-n3cc(C(N)=O)c(NC(N)=O)n3)cc2)cc1` [Example 119], the IC50 is 0.664 µM.
Turning to `COc1cccc(-c2ccc(-n3cc(NC(N)=O)c(C(N)=O)n3)cc2)c1F` [Example 120, 4-[(aminooarbonyl)amino]-1-(2′-fluoro-3′-methoxy-1,1′-biphenyl-4-yl)-1H-pyrazole-3-carboxamide], the IC50 was found to be 0.972 µM.
For the molecule `NC(=O)Nc1nn(-c2ccc(-c3ccc4ccccc4c3)cc2)cc1C(N)=O` [Example 123], the half-inhibitory concentration (IC50) is above 20 µM.
On to `CC(C)(C)c1ccc(-c2ccc(-n3cc(C(N)=O)c(NC(N)=O)n3)cc2)cc1` [Example 126], for which the IC50 is above 20 µM.
With `CC(C)Cc1ccc(-c2ccc(-n3cc(C(N)=O)c(NC(N)=O)n3)cc2)cc1` [Example 127], the IC50 was above 20 µM.
As for `CCCCc1ccc(-c2ccc(-n3cc(C(N)=O)c(NC(N)=O)n3)cc2)cc1` [Example 128], the IC50 is above 20 µM.
With `COc1ccc(Cl)cc1-c1ccc(-n2cc(NC(N)=O)c(C(N)=O)n2)cc1` [Example 129, 4-[(aminocarbonyl)amino]-1-(5′-chloro-2′-methoxy-1,1′-biphenyl-4-yl)-1H-pyrazole-3-carboxamide], the IC50 amounted to 1.82 µM.
Turning to `NC(=O)Nc1cn(-c2ccc(-c3cccc(-n4cccn4)c3)cc2)nc1C(N)=O` [Example 130, 4-[(aminocarbonyl)amino]-1-[3′-(1H-pyrazol-1-yl)-1,1′-biphenyl-4-yl]-1H-pyrazole-3-carboxamide], the IC50 amounted to 1.79 µM.
Take `NC(=O)Nc1nn(-c2ccc(-c3cccc(C(F)(F)F)c3)cc2)cc1C(N)=O` [Example 131]: the IC50 amounted to 3.15 µM.
On to `NC(=O)Nc1nn(-c2ccc(-c3ccc(C(F)(F)F)cc3)cc2)cc1C(N)=O` [Example 132], for which the IC50 is 18.8 µM.
Turning to `NC(=O)Nc1cn(-c2ccc(-c3cccc(Cl)c3Cl)cc2)nc1C(N)=O` [Example 133, 4-[(aminocarbonyl)amino]-1-(2′,3′-dichloro-1,1′-biphenyl-4-yl)-pyrazole-3-carboxamide], the IC50 was found to be 1.63 µM.
Take `NC(=O)Nc1nn(-c2ccc(-c3ccc(Cl)cc3Cl)cc2)cc1C(N)=O` [Example 134, 4-[(aminocarbonyl)amino]-1-(2′,4′-dichloro-1,1′-biphenyl-4-yl)-1-pyrazole-3-carboxamide]: the IC50 was found to be 3.84 µM.
On the same count and under the same terms, then `NC(=O)Nc1nn(-c2ccc(-c3cc(Cl)ccc3Cl)cc2)cc1C(N)=O` [Example 135], with 1.66 µM; and `NC(=O)Nc1nn(-c2ccc(-c3ccc(Cl)c(Cl)c3)cc2)cc1C(N)=O` [Example 136], with above 20 µM; and `NC(=O)Nc1nn(-c2ccc(-c3cc(Cl)cc(Cl)c3)cc2)cc1C(N)=O` [Example 137], with above 20 µM.
For `CCCCCc1ccc(-c2ccc(-n3cc(C(N)=O)c(NC(N)=O)n3)cc2)cc1` [Example 138], the 50% inhibitory concentration (IC50) was above 20 µM.
For the molecule `NC(=O)Nc1nn(-c2ccc(-c3ccc(C4CCCCC4)cc3)cc2)cc1C(N)=O` [Example 140], the IC50 was above 20 µM.
Same read-out and setting: then `NC(=O)Nc1cn(-c2ccc(-c3ccc(C(=O)O)cc3)cc2)nc1C(N)=O` [Example 142, 4′-{3-(aminocarbonyl)-4-[(aminocarbonyl)amino]-1H-pyrazol-1-yl}-1,1′-biphenyl-4-carboxylic acid], with 0.17 µM.
